| SMILES | melting point [°C] |
| --- | --- |
| C=CCOc1ccccc1S(N)(=O)=O | 104 to 105 |
| O=C(O)COCC(=O)NCCCCCCCNC(=O)OCc1ccccc1 | 74 to 74.5 |
| CC12CCC3c4cccc(N)c4CCC3C1CCC2O (stereo unspecified) | 189 to 192 |
| CCCCOc1c(CN2C(=O)c3ccccc3C2=O)n(CC2CC2)c(=O)c2ccc(Br)cc12 | 156 to 157 |
| Cn1c(=O)sc2ccc(C(c3ccc(C#N)cc3)n3cncn3)cc21 (stereo unspecified) | 122 to 125 |
| Cc1cccc2c(=O)[nH]c(N3CCN(C)CC3)cc12 | 186 to 188 |
| N#CCNC(COCc1cc(C(F)(F)F)cc(C(F)(F)F)c1)C(c1ccccc1)c1ccccc1 (stereo unspecified) | 78 to 80 |
| CN(C)C=Nc1c(Cl)cc(N=Cc2ccc(N(C)C)cc2Cl)cc1Cl | 139 to 140 |
| COc1cc2c(c3c1OC(C)(C)C3)C(c1ccn(-c3cc(C(N)=O)ccn3)c(=O)c1)=NC(C)(C)C2 | 174 to 175 |
| COc1cc2c(cc1OC)CN(CCC1OCC(C)(C)c3cc(OC)c(OC)cc31)CC2 (stereo unspecified) | 100 to 105 |
| O=C(C=Cc1ccccc1)N1CCc2c([nH]c3ccccc23)C12CCC(c1cccc(F)c1)(N1CCC1)CC2 (stereo unspecified) | 120 to 126 |
| CCc1ccc2c(=O)c(-c3nnn[nH]3)cn(C)c2c1 | 180 to 181 |
| O=C(O)CSC(CCCCNS(=O)(=O)c1ccc(Cl)cc1)CCCc1cccnc1 (stereo unspecified) | 78 to 80 |
| CN(C)C1(c2cccc(F)c2)CC=C(c2[nH]c3ccccc3c2CCc2ccncc2)CC1 (stereo unspecified) | 194 to 198 |
| CSC1=CNSC1(C#N)SC (stereo unspecified) | 63.5 to 64 |
| COc1ccc2c(=O)c3ccc(O)c(OC)c3oc2c1 | 120 to 121 |
| CCc1cnc2n1N=C(c1ccc(N)cc1)c1cc3c(cc1C2)OCO3 | 258 to 260 |
| COC(=O)c1c([N+](=O)[O-])cccc1S(=O)(=O)N(CCO)CCO | 92 to 93 |
| C[C@]1(CN2CCN(C(=O)OCc3cc(Cl)cc(Cl)c3)CC2)Cn2cc([N+](=O)[O-])nc2O1 | 129 to 130 |
| Nc1c(-c2cc(Cl)ccc2O)c2c(C(F)(F)F)cccc2[nH]c1=O | 267 to 268 |
| CN(C)C1CCc2[nH]c3c(CO)cccc3c2C1 (stereo unspecified) | 227 to 230 |

| SMILES | melting point [°C] |
| --- | --- |
| COc1ccc(-c2cc3cc(OC)cc(CBr)c3o2)cc1 | 158 to 160 |
| O=C(Nc1cccc(C(F)(F)F)c1)C(F)(F)F | 69 |
| CCOCOCCCOn1cnc2c(=O)[nH]c(N)nc21 | 242 to 245 |
| CCOC(=O)c1cnn(-c2cc(Cl)cc(Cl)c2)c1SC | 70 to 72 |
| O=C(N[C@@H]1CN2C(=O)N(c3cc(Cl)nc(Cl)c3)C(=O)[C@@]2(Cc2ccc(OC(F)(F)F)cc2)C1)c1ccncc1 | 148 |
| O=Cc1ccc(-c2cnco2)[nH]1 | 152 to 153 |
| CN1CC=C(c2c[nH]c3ccc(-c4cnc5[nH]cc(C(=O)C(C)(C)C)c5n4)cc23)CC1 | 263 to 265 |
| OC(c1ccncc1)(c1ccc(F)c(F)c1)c1ccc(F)c(F)c1 | 147 to 149 |
| O=C(NCCc1ccc(CN2CCCC2)cc1)N1CCC(c2ccc(Cl)cc2)CC1 | 116 to 117 |
| O=C(Nc1cc2ncc(CN3CCCC3)cc2cc1N1CCCC1)c1ccc(Br)cc1 | 171 to 173 |
| CC(C)=CCc1c(C)cc(O)cc1C | 64 to 65 |
| Cc1nc2c(C(F)(F)F)cccc2c(O)c1C(=O)O | 260 |
| COc1cccc(-c2cc(=O)c3c(OC)cc(OC)c(C4=CCN(C)CC4)c3o2)c1OC | 195 to 196 |
| C=C1CCC2C3CCc4cc(OC(C)=O)ccc4C3CCC12C (stereo unspecified) | 77 to 79 |
| C1CCC2NC3NC4CCCCC4NC3NC2C1 (stereo unspecified) | 148 to 155 |
| Cc1cc(-c2nc3cccnn3c2-c2ccnc(NC(=O)c3ccc4ncsc4c3)c2)ccc1F | 252 to 253 |
| Cc1cc2nc(-c3cccnc3N)n(-c3ccc(CC(=O)Nc4ccc5ncccc5c4)cc3)c2nc1-c1cccnc1 | 176 to 178 |
| N#CCC(=O)Nc1ccc(-n2nc(C(F)(F)F)cc2C(F)(F)F)cc1 | 140 to 143 |
| CSc1c(C(=O)O)ccc(Br)c1Cl | 128 to 130 |
| O=[N+]([O-])c1cc2c(Nc3ccc(F)c(Cl)c3)ncnc2cc1OC1CCCC1 | 230 |
| COc1c(-c2ccc3cc(NS(C)(=O)=O)ccc3c2)cc(N2CCCC2=O)cc1C(C)(C)C | 229 to 230 |

| SMILES | melting point [°C] |
| --- | --- |
| O=S(=O)(c1ccc(Nc2nccc(Nc3ccc(F)cc3)n2)cc1)N1CCC(C(O)c2ccncc2F)CC1 (stereo unspecified) | 140 |
| COc1cc(Cl)cc2nc(S(=O)(=O)Nc3c(Cl)cccc3Cl)nn12 | 232 to 234 |
| CCCNC(=S)NC1=Nc2ccc(OC(F)(F)F)cc2CS1 | 148 to 151 |
| COc1ccc(C2Sc3cc(Oc4cccc(C)c4)ccc3NC(=O)C2O)cc1 (stereo unspecified) | 201 to 202 |
| Cc1nn(-c2cc(Oc3ccc([N+](=O)[O-])cn3)c(Cl)cc2F)c(=O)n1C(F)F | 120 to 123 |
| O=C(O)c1cc2c(s1)S(=O)(=O)CC2 | 227 to 230 |
| CCn1c(CCO)nc(C(C)C)c1Sc1cc(Cl)cc(Cl)c1 | 80 to 81 |
| Cc1ccc(S(=O)(=O)N2CCCC2c2ccc(F)cc2)cc1 (racemic) | 128 |
| COc1nc2ncccc2c2nc(S(=O)(=O)Cl)nn12 | 172 to 174 |
| COc1ccc(NC(=O)N(O)C2CCCCCCC2)cc1 | 166 to 167 |
| CS(=O)c1ccc(S(=O)(=O)N2CCCC2=O)cc1 (stereo unspecified) | 127 to 129 |
| COC(F)(F)C(F)(F)C1(C(F)(F)C(F)(F)OC)OCCO1 | 30 to 40 |
| CC(C)(CO)C(O)C(Oc1ccc(Cl)cc1)n1cncn1 (stereo unspecified) | 110 to 112 |
| CC1(C)C(=O)Nc2ccc(C#N)cc2N(CC2CC2)C1=O | 234 to 236 |
| Cc1nc[nH]c1CSCCC1=NCCS(=O)(=O)N1 | 146 to 147 |
| CC1(C)CC(C)(C)CC2(CCCC(=O)N2)C1 | 126 to 128 |
| CC(C)N1CCN(c2ccc(C(=O)NC3(C(=O)NCC#N)CCCCC3)cc2)CC1 | 218 to 220 |
| COC(=O)CCc1nsc2ccc(-n3c(=O)cc(C(F)(F)F)n(C)c3=O)cc12 | 176 to 178 |
| COc1cc2nc(C)c3c4cc5c(cc4ccc3c2cc1OC)OCO5 | > 250 |
| CC(O)CC#Cc1ccc(C(CC2CCCC2)C(=O)O)cc1 (stereo unspecified) | 73 to 76 |

Second part, the compound after the results:

| melting point [°C] | SMILES |
| --- | --- |
| 55 to 56 | C=CCOC(=O)C(C)N(C(=O)CCl)c1c(C)cccc1C (stereo unspecified) |
| 105 to 109 | O=C1COCC(c2ccccc2)N1C(=O)Oc1ccc([N+](=O)[O-])cc1 (stereo unspecified) |
| 57 to 60 | CCCCNC(=O)Oc1ccc(Oc2ccccc2)cc1Br |
| 281 to 284 | COc1ccc(-c2ccc(C(=O)O)cc2)c2c1OCCO2 |
| 186 to 187 | Cn1nc(-c2ccc(OCCCCl)cc2)ccc1=O |
| 158 to 160 | Cc1nnc2c(C(C)Oc3ccc(Cl)cc3)ccnn12 (stereo unspecified) |
| 153 to 155 | COC(=O)CCc1sc(Sc2ccc(O)cc2)nc1-c1ccccc1 |
| 188 to 189 | CS(=O)(=O)c1cc(OCc2ccccc2)c(C(=O)O)s1 |
| 90 to 92 | Cc1cc(SCC#Cc2ccccc2)ccc1OCC(=O)O |
| 142 | CCn1cc(-c2ccccc2)c2ncccc2c1=O |
| 250 to 251 | CC(=O)N(C)Cc1ccc(C(=O)Cn2cnc3cc(-c4ccc(Cl)cc4)sc3c2=O)cc1 |
| 157 to 158 | CC(NC(=O)OC(C)(C)C)c1ccc(NS(C)(=O)=O)c(C#Cc2ccccc2)c1 (stereo unspecified) |
| 188 to 189 | CSc1c(OCC(=O)O)ccc2c3ccccc3n(Cc3ccccc3)c12 |
| 74 to 86 | COc1ccc2cc([C@H](C)C(=O)OCCS(=O)CCO)ccc2c1 (stereo partly specified) |
| 98 to 100 | C=C[C@H](O)[C@H](Cc1ccccc1)NC(=O)OC(C)(C)C |
| 226 | NC(C(=O)O)c1ccc(C(=O)O)cc1SCc1ccccc1 (stereo unspecified) |
| 115 | CC(C)(C)C(=O)Nc1cc(OCc2ccccc2)c(OCc2ccccc2)cc1N |
| 150 to 151 | Cc1ccccc1-c1nc(-c2ccc(Cl)cc2)n[nH]1 |
| 190 to 191 | O=C(NCc1ccc(F)cc1)c1cccc(C(=O)NCc2ccc(F)cc2)c1 |
| 202 to 204 | C[C@@H]([C@@H](O)c1ccc(O)cc1)N1CCC(O)(c2ccccc2)CC1 (relative stereo) |

| melting point [°C] | SMILES |
| --- | --- |
| 195 to 197 | CC(C)N(C(=O)c1ccc(OCCCCCOc2ccc(C(N)=NO)cc2)cc1O)C(C)C |
| 139 to 142 | Cc1c(C(=O)CC(C)(C)C)c2ccccc2n1CCCNS(C)(=O)=O |
| 156 to 160 | CNC(=O)N(c1ccncc1)n1cccc1 |
| 299 to 301 | O=c1cc(-c2ccc(O)cc2)oc2c([N+](=O)[O-])cccc12 |
| 100 | COC(=O)C1Oc2ccc(Oc3ccc(Cl)cc3)cc2C(C)(c2ccccc2)O1 (stereo unspecified) |
| 161 to 162 | Cc1cccc(S(=O)(=O)Nc2cccnc2Nc2ccccc2)c1 |
| 125 to 127 | CC(=O)OC1CCCc2cnc3ccc(OCc4ccccc4[N+](=O)[O-])cc3c21 (stereo unspecified) |
| 197 to 198 | O=C(O)CC1CCCc2c1n(Cc1ccccc1Cl)c1c(F)cc(F)cc21 (stereo unspecified) |
| 77 to 81 | Cc1cc(F)ccc1-c1nc(OCC(CO)CO)nc2c1ccc(=O)n2-c1c(F)cccc1F |
| 190 to 193 | Cc1cc(Nc2ccccc2C(=O)O)n(-c2ccccn2)n1 |
| 218 to 221 | CC(C)c1ccc(C(=O)N(C(=N)N)C(=O)c2ccc(C(C)C)c(S(C)(=O)=O)c2)cc1S(C)(=O)=O |
| > 300 | c1ccc(C2CCN(CC34CC(c5ccccc53)c3ccccc34)CC2)cc1 |
| 181 | CC1(C)CCCC=C1c1ccc(C(=O)O)cc1 |
| 140 | COc1ccccc1C1(O)C(O)CCC2CN(Cc3ccccc3)CC21 (stereo unspecified) |
| 105 to 107 | Nc1ccc2c(c1)CC(NS(=O)(=O)c1ccccc1)C2 (stereo unspecified) |
| 48 to 49 | O=P(CCc1ccccc1)(OCc1ccccc1)OCc1ccccc1 |
| 106 to 109 | Cc1cccc(C)c1N(CC(C)Cl)C(=O)c1ccccc1 (stereo unspecified) |
| 275 to 277 | Cc1ccc(-c2cn3c(n2)sc2cc(O)ccc23)cc1 |
| 201 to 203 | CC1(c2cccc(OCc3ccccc3)c2)C(=O)Nc2cc(Cl)cc(Cl)c2C1=O (stereo unspecified) |

Source: a melting point compilation (Tetko et al.; mined from patent text by program, amines drawn as free bases though some values may be those of a salt)
